Reference: PMC12838644, “Dihydrotanshinone as a Natural Product-Based CYP17A1 Lyase Inhibitor for Hyperandrogenic Disorders” (Biomolecules, 2026)
Like-named read-outs stand apart in the source and are kept apart here.

Tests used:
[1] = test system: CYP21A2; experiment: Western blot of CYP21A2 protein expression in treated HEK-293T cells; type: cell-based, human; settings: normalized to β-actin, 4 h treatment, DMSO control 1.07
Procedure: CYP21A2 expression was determined from total protein extracts. Cells were incubated with the previously described lysis buffer for 1 h and centrifuged at 10,000× g for 10 min at 4 °C [54]. The supernatant was collected, and total protein was determined using the Pierce Coomassie Plus (Bradford) assay kit (Thermo Fisher Scientific, Hanover Park, IL, USA). 50 μg of total protein was loaded onto an SDS-PAGE gel (GenScript, Piscataway, NJ, USA) and then transferred to a PVDF membrane as previously described. Two primary antibodies were used: a mouse DKY-Tag monoclonal antibody (GenScript, Catalog No. A00187) at a dilution of 1:1000 and a mouse anti-β-actin monoclonal antibody (Sigma Aldrich, St. Louis, MO, USA, Catalog No. SAB3500350) at a dilution of 1:1500. The secondary antibody, IRDye 800CW-conjugated donkey anti-mouse antibody (LI-COR, Lincoln, NE, USA, Catalog No. 926-32212), was used at a dilution of 1:15,000. Fluorescence signals were detected using an Odyssey SA infrared imaging system (LI-COR Bioscience Inc., Lincoln, NE, USA).

[2] = molecular target: T1, CYP17A1 17,20-lyase (Homo sapiens, UniProt P05093); experiment: CYP17A1 17,20-lyase activity assay (DHEA from 17OH-pregnenolone, POR, CYP17A1 and cytochrome b5); type: biochemical; settings: for inhibition at 10 µM: read-out: % Inhibition CYP17A1-Lyase; for Residual 17,20-lyase activity: % of DMSO control; for Lyase/CYP21A2 Selectivity Index: (% Inhibition Lyase)/(% Inhibition CYP21A2) at 10 µM (SM 10 µg/mL); for Lyase/OH Selectivity Index: (% Inhibition Lyase)/(% Inhibition OH) at 10 µM (SM 10 µg/mL)
T1 sequence (P05093 1-508): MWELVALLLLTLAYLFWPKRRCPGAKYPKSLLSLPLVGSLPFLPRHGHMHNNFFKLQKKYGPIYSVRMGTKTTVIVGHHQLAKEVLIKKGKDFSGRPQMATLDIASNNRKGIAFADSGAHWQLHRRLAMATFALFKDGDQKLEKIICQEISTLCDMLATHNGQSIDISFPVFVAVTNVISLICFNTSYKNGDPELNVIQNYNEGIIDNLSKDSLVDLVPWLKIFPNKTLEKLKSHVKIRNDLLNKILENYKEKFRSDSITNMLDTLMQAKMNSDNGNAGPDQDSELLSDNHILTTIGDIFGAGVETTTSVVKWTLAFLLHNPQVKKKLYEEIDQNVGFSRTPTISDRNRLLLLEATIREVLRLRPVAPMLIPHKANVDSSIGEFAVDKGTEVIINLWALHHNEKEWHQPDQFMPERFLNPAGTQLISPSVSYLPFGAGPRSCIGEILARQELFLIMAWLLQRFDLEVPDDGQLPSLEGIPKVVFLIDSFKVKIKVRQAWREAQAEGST
Procedure: Assay of CYP17A1 17α-hydroxylase and 17,20-lyase activities were performed as described previously. The 17α-hydroxylase activity was measured by conversion of progesterone to 17OH-progesterone, while production of DHEA from 17OH-pregnenolone was used for monitoring the 17,20-lyase activity of CYP17A1. In vitro CYP17A1 assays were performed using a liposome system consisting of human p450 oxidoreductase (POR) and CYP17A1 at a ratio of 3:4 (POR: CYP17A1). […] The drugs were added to the final mixture and incubated for 1h before the catalytic reaction was initiated by the addition of NADPH to 1 mM final concentration. Radiolabeled [^14C]-progesterone (10,000 cpm in 1 µM) was used as a tracer in each reaction. Steroids were extracted and separated by thin-layer chromatography (TLC) on silica gel (SIL G/UV254) TLC plates (Macherey-Nagel, Oensingen, Switzerland) as previously described.
In vitro CYP17A1 17,20-lyase activity assays were performed using POR, CYP17A1 and cytochrome b5 as described previously. The final assay mixture consisted of proteins, 10 mM MgCl2, 6 mM KOAc, 0.05 mg/mL DLPC, 1 mM reduced glutathione in 50 mM HEPES-NaOH buffer (pH 7.4), and the reaction volume was 200 μL. The drugs were added to the final mixture and incubated for 1h before the catalytic reaction was initiated by the addition of NADPH to 1 mM final concentration. Radiolabeled [^3H]-17OH-pregnenolone (50,000 cpm in 1 µM) was added as a tracer and the enzyme activity was measured by using the scintillation counter in the water release assay.

[3] = molecular target: T2, CYP17A1 17α-hydroxylase (Homo sapiens, UniProt P05093); experiment: CYP17A1 17α-hydroxylase activity assay (progesterone to 17OH-progesterone, reconstituted POR/CYP17A1); type: biochemical; settings: for inhibition at 10 µM: read-out: % Inhibition CYP17A1-OH
T2 sequence (P05093 1-508): T1 sequence (P05093 1-508)
Procedure: Assay of CYP17A1 17α-hydroxylase and 17,20-lyase activities were performed as described previously. The 17α-hydroxylase activity was measured by conversion of progesterone to 17OH-progesterone, while production of DHEA from 17OH-pregnenolone was used for monitoring the 17,20-lyase activity of CYP17A1. In vitro CYP17A1 assays were performed using a liposome system consisting of human p450 oxidoreductase (POR) and CYP17A1 at a ratio of 3:4 (POR: CYP17A1). The final assay mixture consisted of proteins (37.5 […] CYP17A1), 10 mM MgCl2, 6 mM potassium acetate (KOAc), 0.05 mg/mL DLPC,1 mM reduced Glutathione in 50 mM HEPES-NaOH buffer (pH 7.4), and the reaction volume was 200 μL. The drugs were added to the final mixture and incubated for 1h before the catalytic reaction was initiated by the addition of NADPH to 1 mM final concentration. Radiolabeled [^14C]-progesterone (10,000 cpm in 1 µM) was used as a tracer in each reaction. Steroids were extracted and separated by thin-layer chromatography (TLC) on silica gel (SIL G/UV254) TLC plates (Macherey-Nagel, Oensingen, Switzerland) as previously described.

[4] = 10 µM (SM extract 10 µg/mL), calculated as 100% − % residual activity

SMILES	CYP21A2 protein levels, normalized densitometry values [1]	inhibition at 10 µM [2, 4]	Residual 17,20-lyase activity ([2]; 10 µM (SM extract 10 µg/mL))	Lyase/CYP21A2 Selectivity Index [2]	Lyase/OH Selectivity Index [2]	inhibition at 10 µM [3, 4]	inhibition at 10 µM [2]	Residual 17α-hydroxylase activity ([3]; % of DMSO control, 10 µM (SM extract 10 µg/mL))	inhibition at 10 µM [3]
Cc1coc2c1C(=O)C(=O)c1c-2ccc2c1CCCC2(C)C [TAII, tanshinone IIA]	1.30	43%	57%	High ^c	High ^c	< 1%			
Cc1coc2c1C(=O)C(=O)c1c-2ccc2c(C)cccc12 [TAI, tanshinone I]		28.2%	72%	High ^c	High ^c	< 1%			
Cc1cccc2c3c(ccc12)C1=C(C(=O)C3=O)[C@@H](C)CO1 [DT, dihydrotanshinone I]	1.15		43%	3.80			56.6%	> 93%	6.5%
